Test [1] relates to CHO-K1 cells not expressing the polypeptide shown by SEQ ID NO:2. The test is described as follows: Intracellular calcium by FLIPR in negative control CHO-K1 cells. Format: cell-based. As to conditions: CHO-K1 cells not expressing TRPA1. On the technique in general: Calcium flux is commonly read through the fluorescence of an indicator in the cells.
The subject of the next test is RIN14B cells. The test is described as follows: Channel activity in RIN14B cells using calcium-sensitive fluorescent reagent (FLIPR). It is filed as cell-based, rat. As to conditions: RIN14B cells, Fluo3-AM. The procedure: RIN14B cells (5×10^4 cells), wherein the expression of TRPA1 was confirmed in Example 10, were incubated in the presence of a calcium-sensitive fluorescent reagent (Fluo3-AM; DOJINDO) at 37° C. for 1 hour to thereby incorporate the calcium-sensitive fluorescent reagent in the cells, after which the cells were washed with physiological saline to remove the calcium-sensitive fluorescent reagent that had not been incorporated in the cells. To the cells obtained, physiological saline supplemented with allyl isothiocyanate, cinnamic aldehyde, or acrolein was added; the fluorescence emitted by the cells was measured over time. The above-described measurements were performed using an automated fluorescence detection apparatus (FLIPR; Molecular Device). […] Ruthenium Red was added concurrently and a measurement was performed to determine whether or not calcium inflow in the cells was be inhibited.

The next test has as its system rat EC cells. The test is described as follows: Serotonin secretion from rat small intestine EC cells. It is filed as cell-based. The note with it: 45 minutes culture. The procedure: A Wistar rat (male, 8-week-old) was decapitated and exsanguinated, after which it was dissected and laparotomized with scissors, and the small intestine was extirpated. The inside of the lumen of the extirpated small intestine was washed with physiological saline, and about 20 mL of Buffer A (70 mM NaCl, 5 mM KCl, 20 mM NaHCO3, 0.5 mM NaH2PO4, 50 mM HEPES (pH 7.2), 11 mM glucose, 3 mM EDTA, 0.5% BSA, 0.05 mM dithiothreitol, 1 mg/mL N-acetyl-L-cysteine) was injected, after which both ends were closed, and the small intestine was allowed to stand in 37° C. incubated HBSS for 10 minutes. Thereafter, the Buffer A in the lumen of the small intestine was discarded, about 20 mL of Buffer A was injected again, and the small intestine was allowed to stand in 37° C. incubated HBSS for 10 minutes. Again, the Buffer A in the lumen of the small intestine was discarded, fresh Buffer A was injected, and the small intestine was allowed to stand in 37° C. incubated HBSS for 20 minutes, after which the lumen content was recovered. […]
Serotonin secretion activity in EC cells prepared by the method described in Example 9-(3) was measured by a method modified from the method of Example 14 above. […]
The serotonin content in the supernatant was measured using a commercially available serotonin immunoassay kit (Beckman). […]

A further test relates to guinea pig ileum. Kind of test: Isolated guinea pig gut constriction (Magnus, ileum). The procedure:
Guinea pigs (Hartley strain, male, weighing 300-400 g), under ether anesthesia, were exsanguinated to death by cutting the carotid artery. The ileum was extirpated, about 15-cm portions at both ends were removed, a section 1.5 cm long was cut out from the remaining portion, and incisions were made longitudinally parallelly in the gut to prepare a tabular specimen. This specimen was sandwiched with serrefine at both ends, and suspended with a thread in a Magnus chamber containing 10 ml of a 37° C. Krebs solution (118 mM NaCl, 4.7 mM KCl, 2.5 mM CaCl2, 1.2 mM MgSO4, 1.2 mM KH2PO4, 11 mM D-glucose, 20 mM NaHCO3) aerated with 95% O2-5% CO2 mixed gas. A 1-g load was applied to the specimen, buffers were exchanged at 15-minute intervals, and the specimen was allowed to stand for about 60 minutes to stabilize its tension. Changes in the tension in response to agonist stimulation were measured isometrically, and recorded on a recorder. Acetylcholine, 10^−5 M, was administered to induce contraction of the ileum specimen; after the contraction maximized, the bath was washed three times to purge out the acetylcholine. This operation was repeated at 10-minute intervals, and after the induced contraction stabilized two consecutive times, each test substance was administered. By comparing the contractile forces produced by acetylcholine and the test substance, the effect of the test substance was evaluated. One specimen was investigated only at one concentration of the test substance. […] From the results above, it was shown that the TRPA1 activator induced gut contraction.
The serotonin receptor antagonists used were pizotifen maleate (10 μM), a 5-HT1,2 receptor antagonist, ketanserin tartrate (0.1 μM), a 5-HT2 receptor antagonist, ramosetron hydrochloride (0.3 μM), a 5-HT3 receptor antagonist, and GR113808 (0.3 μM), a 5-HT4 receptor antagonist.
The inhibitory actions of various serotonin receptor antagonists on contraction upon stimulation with acrolein (300 μM) were investigated in the same manner. […] From the results above, it was shown that serotonin was released upon stimulation with acrolein to induce contraction via serotonin receptors such as 5-HT1 receptor and 5-HT3 receptor.

A further test has as its system mouse constipation model. The test is described as follows: Loperamide-induced mouse constipation model (bead discharge time). It is filed as in vivo. The note with it: loperamide 0.3 mg/kg s.c., 0.01 to 1 mg/kg oral. The procedure:
Because loperamide, a μ opioid receptor agonist, induces convulsive contraction in the gut and causes a delay of gut transportation, this experimental system is thought to be an experimental model of constipation type irritable bowel syndrome.
Mice (ddY, male, 5-week-old, SLC) were fasted from afternoon of the day before the experiment; on the day of the experiment, the mice were acclimated to the measurement cage for 1 hour or more, after which loperamide, 0.3 mg/kg, was administered subcutaneously. […] The mouse was returned to the measurement cage, and time from awakening to discharge of the glass beads was measured.

Each structure is given as a SMILES string. “Also recorded” adds a separate entry of the source.

`C=CCN=C=S` [allyl isothiocyanate]: the “elevation of fluorescence intensity in negative control cells” value in test [1] is “none of these compounds produced an elevation of fluorescence intensity”. Besides, the “elevation of fluorescence intensity (calcium inflow) in RIN14B cells” value with RIN14B cells is “an elevation of fluorescence intensity was detected”. Further, the “serotonin secretion from rat EC cells” value in the test with rat EC cells is given as “significant serotonin secretion promoting activity was observed; also recorded: promoted the release of serotonin from the EC cells”. Moreover, the EC50 with guinea pig ileum (Cavia porcellus, read-out: EC50(μM) †) was 129 µM. Further, in the test with guinea pig ileum (Magnus (guinea pig ileum)), the Action entry was “Contraction”. In the test with mouse constipation model, the bead discharge time entry is “dose-dependently ameliorated the delay of bead discharge time by loperamide; also recorded: concentration-dependently shortened bead discharge time compared to the vehicle control”.

For orientation: EC50 means the concentration needed to bring the measured effect to its halfway point.

These data come from US8034574B2, “Screening method for prokinetic agent” (Astellas Pharma Inc., priority 2006, dated 2011).
